Assay results published in patent US5686418A, “Prolonging survival of transplanted pancreatic cells” (Biomeasure Incorporated, priority 1996, dated 1997).
Like-named read-outs stand apart in the source and are kept apart here. Where a SMILES comes first, the peptide text is derived from it. Bridges are numbered along the chain shown (N, C = ends). [ ]: non-standard residue; d: D form.

How the values were obtained:
human SSTR-1 = human SSTR-1 (Homo sapiens, UniProt P30872); experiment: Somatostatin receptor binding assay, hSSTR-1
Chain of human SSTR-1 (P30872 whole entry, the tested form may be a part): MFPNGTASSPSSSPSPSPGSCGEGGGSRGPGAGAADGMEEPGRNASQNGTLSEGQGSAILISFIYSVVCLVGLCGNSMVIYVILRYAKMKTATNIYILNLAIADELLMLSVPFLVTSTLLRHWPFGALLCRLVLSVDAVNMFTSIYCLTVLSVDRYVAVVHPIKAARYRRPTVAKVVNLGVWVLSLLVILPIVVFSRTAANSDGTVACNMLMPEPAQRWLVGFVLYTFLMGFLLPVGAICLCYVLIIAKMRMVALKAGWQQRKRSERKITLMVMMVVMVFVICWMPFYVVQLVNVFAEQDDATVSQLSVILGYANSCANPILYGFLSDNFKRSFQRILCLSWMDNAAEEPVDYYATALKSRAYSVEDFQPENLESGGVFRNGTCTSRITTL
Excerpt: (§1) The human SSTR-1, SSTR-2, SSTR-3, SSTR-4, and SSTR-5 cDNA clones have been described (SSTR-1 and SSTR-2 in Yamada, Y., et al., Proc. Natl. Acad. Sci. USA., 89:251-255 (1992); SSTR-3 in Yamade, et al., Mol. Endocrinol. 6:2136-2142 (1993); and SSTR-4 and SSTR-5 in Yamada, et al., Biochem. Biophys. Res. Commun. 195:844-852 (1993)) and are also available from American Type Culture Collection (ATCC, Rockville, Md.) (ATCC Nos. 79044 (SSTR-1), 79046 (SSTR-2), and 79048 (SSTR-3)). […] Restriction endonucleases are available from New England Biolabs (Beverly, Mass.). This cDNA fragment was inserted into the mammalian expression vector, pCMV (Russell, D., et al., J. Biol. Chem., 264:8222-8229 (1989)), using standard molecular biology techniques (see e.g., Maniatis, T., et al., Molecular Cloning--A Laboratory Manual, Cold Spring Harbor Laboratory, 1982) to produce the expression plasmid, pCMV-human SSTR-1 through pCMV-human SSTR-5. Other mammalian expression vectors include pcDNA1/Amp (Invitrogen, Sandlesy, Calif.). The expression plasmids were introduced into the suitable bacterial host, E. Coli HB101 (Stratagene, La Jolla, Calif.) and plasmid DNAs, for transfection, were prepared on Cesium Chloride gradients.
(§2) CHO-K1 (ovary, Chinese hamster) cells were obtained from ATCC (ATCC No. CCL 61). […]

human SSTR-4 = human SSTR-4 (Homo sapiens, UniProt P31391); experiment: Somatostatin receptor binding assay, hSSTR-4
Chain of human SSTR-4 (P31391 whole entry): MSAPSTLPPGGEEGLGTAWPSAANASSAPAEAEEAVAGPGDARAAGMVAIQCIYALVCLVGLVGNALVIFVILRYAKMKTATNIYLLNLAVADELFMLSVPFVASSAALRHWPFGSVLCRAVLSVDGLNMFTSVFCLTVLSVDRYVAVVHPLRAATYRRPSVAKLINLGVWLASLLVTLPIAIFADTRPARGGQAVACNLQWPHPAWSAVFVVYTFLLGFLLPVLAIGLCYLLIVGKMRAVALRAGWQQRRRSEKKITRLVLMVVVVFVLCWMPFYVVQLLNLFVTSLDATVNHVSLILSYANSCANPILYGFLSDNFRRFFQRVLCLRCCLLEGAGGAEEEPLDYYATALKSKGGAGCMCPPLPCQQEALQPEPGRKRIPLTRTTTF
Excerpt: as §1, §2

human SSTR-5 = human SSTR-5 (Homo sapiens, UniProt P35346); experiment: Somatostatin receptor binding assay, hSSTR-5
Chain of human SSTR-5 (P35346 whole entry): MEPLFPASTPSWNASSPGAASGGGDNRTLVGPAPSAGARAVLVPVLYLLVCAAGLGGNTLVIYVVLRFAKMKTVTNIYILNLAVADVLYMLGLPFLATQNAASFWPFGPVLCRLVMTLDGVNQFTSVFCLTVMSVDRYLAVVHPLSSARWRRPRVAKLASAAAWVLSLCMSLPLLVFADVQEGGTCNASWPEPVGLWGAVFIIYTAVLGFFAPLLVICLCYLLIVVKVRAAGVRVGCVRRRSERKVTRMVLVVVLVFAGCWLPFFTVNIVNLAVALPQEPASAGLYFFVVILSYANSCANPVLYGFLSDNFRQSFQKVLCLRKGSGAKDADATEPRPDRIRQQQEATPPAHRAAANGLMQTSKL
Excerpt: as §1, §2

human SSTR-2 = human SSTR-2 (Homo sapiens, UniProt P30874); experiment: Somatostatin receptor binding assay, hSSTR-2
Chain of human SSTR-2 (P30874 whole entry): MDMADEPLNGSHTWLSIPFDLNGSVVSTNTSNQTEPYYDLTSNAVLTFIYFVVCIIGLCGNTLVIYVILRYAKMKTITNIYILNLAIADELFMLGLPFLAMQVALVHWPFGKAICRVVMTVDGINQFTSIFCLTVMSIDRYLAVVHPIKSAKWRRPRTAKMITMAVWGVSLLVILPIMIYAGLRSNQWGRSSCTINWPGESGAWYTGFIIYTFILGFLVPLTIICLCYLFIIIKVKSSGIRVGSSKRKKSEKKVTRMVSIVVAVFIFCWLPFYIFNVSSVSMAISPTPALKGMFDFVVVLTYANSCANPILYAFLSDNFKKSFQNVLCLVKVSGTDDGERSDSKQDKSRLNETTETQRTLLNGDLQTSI
Excerpt: as §1, §2

human SSTR-3 = human SSTR-3 (Homo sapiens, UniProt P32745); experiment: Somatostatin receptor binding assay, hSSTR-3
Chain of human SSTR-3 (P32745 whole entry): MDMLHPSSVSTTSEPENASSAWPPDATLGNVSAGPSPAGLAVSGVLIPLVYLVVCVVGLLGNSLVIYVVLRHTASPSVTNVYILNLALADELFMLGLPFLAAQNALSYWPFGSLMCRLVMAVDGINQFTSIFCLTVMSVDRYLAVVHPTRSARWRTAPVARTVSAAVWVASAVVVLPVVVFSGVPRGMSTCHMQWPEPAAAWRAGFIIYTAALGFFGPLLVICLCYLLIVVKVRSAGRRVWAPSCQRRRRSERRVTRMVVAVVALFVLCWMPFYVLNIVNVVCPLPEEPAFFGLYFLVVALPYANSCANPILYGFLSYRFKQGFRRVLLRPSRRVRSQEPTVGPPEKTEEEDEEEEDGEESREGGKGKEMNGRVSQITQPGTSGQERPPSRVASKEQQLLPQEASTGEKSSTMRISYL
Excerpt: as §1, §2

Row | Ki (human SSTR-5; read-out: Ki hSSTR-5) [nM] | Structure (SMILES) | Ki (human SSTR-1) [nM] | Ki (human SSTR-4) [nM] | Ki (human SSTR-5) [nM] | Ki (human SSTR-2) [nM] | Ki (human SSTR-3) [nM]
1 |  | C[C@@H](O)[C@H](NC(=O)[C@H](Cc1ccccc1)NC(=O)[C@@H](NC(=O)[C@H](CCCCN)NC(=O)[C@@H](Cc1c[nH]c2ccccc12)NC(=O)[C@H](Cc1ccccc1)NC(=O)[C@H](Cc1ccccc1)NC(=O)[C@H](N)Cc1ccccc1)[C@@H](C)O)C(N)=O [BIM-23052, H-D-Phe-Phe-Phe-D-Trp-Lys-Thr-Phe-Thr-NH2] (H-[dF]FF[dW]KTFT-NH2) | 97.6 | 126 | 1.23 | 5.77 | 5.59
2 | 0.376 | C[C@@H](O)[C@@H]1NC(=O)[C@H](CCCCN)NC(=O)[C@@H](Cc2c[nH]c3ccccc23)NC(=O)[C@H](Cc2ccccc2)NC(=O)[C@H](Cc2ccccc2)NC(=O)[C@@H](N)CSSC[C@@H](C(N)=O)NC(=O)[C@H](Cc2ccccc2)NC1=O [BM-23268, H-Cys-Phe-Phe-D-Trp-Lys-Thr-Phe-Cys-NH2] (H-CFF[dW]KTFC-NH2; disulfide 1-8) | 12.3 |  |  | 6.84 | 61.6
